Patent US8399674B2, “Quinolines” (Hoffman-La Roche Inc., priority 2007, dated 2013)

Assays:
[1] = target: T1, recombinant human 5-HT5A receptor (Homo sapiens, UniProt P47898); experiment: [3H]LSD radioligand binding assay, membranes of HEK-EBNA cells transiently expressing the receptor; conditions: [3H]LSD approx. 1 nM, 120 min room temperature, Ki from IC50 by Cheng-Prussoff equation, read-out: Ki (affinity towards the human 5-HT5A receptor)
T1 construct: expressed in transfected cells; host or cells: HEK-EBNA (Human Embryonic Kidney-EBNA) cells, transient transfection; membranes
Method: A [^3H] LSD radioligand binding assay was used to determine the affinity of the compounds for the recombinant human 5-HT5A receptor, in membranes from transiently (cDNA) expressed 5-HT5A receptors in Human Embryonic Kidney-EBNA (HEK-EBNA) cells.
Assay buffer consisted of Tris (50 mM) buffer containing 1 mM EGTA, 10 mM MgCl2 (pH 7.4) and 10 μM pargyline. The binding assay was carried out in 96-well-plates in the presence of [^3H]LSD (approximately 1 nM), approximately 2 μg/well of membrane protein, and 0.5 mg of Ysi-poly-1-lysine SPA beads in a final volume of 200 μl of buffer. Non-specific binding was defined using methiothepin 2 μM. Compounds were tested at 10 concentrations. All assays were conducted in duplicate and repeated at least two times. Assay plates were incubated for 120 min at room temperature before centrifugation. Bound ligand was determined using a Packard Topcount scintillation counter. IC50 values were calculated using a non-linear curve fitting program and Ki values calculated using the Cheng-Prussoff equation.

T1 sequence (P47898 whole entry): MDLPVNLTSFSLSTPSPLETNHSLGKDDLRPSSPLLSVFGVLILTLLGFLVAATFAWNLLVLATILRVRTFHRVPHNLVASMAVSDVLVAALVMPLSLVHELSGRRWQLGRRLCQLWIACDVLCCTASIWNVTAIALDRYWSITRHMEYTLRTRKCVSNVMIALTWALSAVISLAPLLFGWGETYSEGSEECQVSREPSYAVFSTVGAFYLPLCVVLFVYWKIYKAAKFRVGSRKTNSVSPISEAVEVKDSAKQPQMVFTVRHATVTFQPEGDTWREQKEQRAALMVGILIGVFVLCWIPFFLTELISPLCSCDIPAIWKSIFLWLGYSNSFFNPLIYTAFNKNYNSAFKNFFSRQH

melting point [°C] | Ki [1] [nM] | Compound
156 |  | COc1ccccc1CNc1ccc2cc(Nc3nnn(C(C)(C)C)n3)ccc2n1 [Example 95, N6-(2-tert-Butyl-2H-tetrazol-5-yl)-N2-(2-methoxy-benzyl)-quinoline-2,6-diamine]
199 | 47 | COc1ccccc1CNc1ccc2cc(Nc3nnc(C4CC4)o3)ccc2n1 [Example 96, N6-(5-Cyclopropyl-[1,3,4]oxadiazol-2-yl)-N2-(2-methoxy-benzyl)-quinoline-2,6-diamine]
198 |  | COc1ccccc1CNc1ccc2cc(Nc3nnc(C(F)(F)F)o3)ccc2n1 [Example 97, N2-(2-Methoxy-benzyl)-N6-(5-trifluoromethyl-[1,3,4]oxadiazol-2-yl)-quinoline-2,6-diamine]
144 |  | COc1ccccc1CNc1ccc2cc(Nc3nc(C(F)(F)F)co3)ccc2n1 [Example 98, N2-(2-Methoxy-benzyl)-N6-(4-trifluoromethyl-oxazol-2-yl)-quinoline-2,6-diamine]
166 |  | COc1ccccc1CNc1ccc2cc(Nc3ncc(C(F)(F)F)o3)ccc2n1 [Example 99, N2-(2-Methoxy-benzyl)-N6-(5-trifluoromethyl-oxazol-2-yl)-quinoline-2,6-diamine]
205 |  | COc1ccccc1CNc1ccc2cc(Nc3ncco3)ccc2n1 [Example 100, N2-(2-Methoxy-benzyl)-N6-oxazol-2-yl-quinoline-2,6-diamine]
151 |  | COc1ccccc1CNc1ccc2cc(Nc3cccc(C(F)(F)F)n3)ccc2n1 [Example 101, N2-(2-Methoxy-benzyl)-N6-(6-trifluoromethyl-pyridin-2-yl)-quinoline-2,6-diamine]
220 |  | COc1ccccc1CNc1ccc2cc(Nc3nc4cc(C)ccc4o3)ccc2n1 [Example 102, N2-(2-Methoxy-benzyl)-N6-(5-methyl-benzooxazol-2-yl)-quinoline-2,6-diamine]

Continued, compound first:

Compound | melting point [°C] | Ki [1] [nM]
COc1ccccc1CNc1ccc2cc(Nc3nnc(C)o3)ccc2n1 [Example 85, N2-(2-Methoxy-benzyl)-N6-(5-methyl-[1,3,4]oxadiazol-2-yl)-quinoline-2,6-diamine] | 183 | 
COc1ccccc1CNc1ccc2cc(Nc3nc(C)no3)ccc2n1 [Example 86, N2-(2-Methoxy-benzyl)-N6-(3-methyl-[1,2,4]oxadiazol-5-yl)-quinoline-2,6-diamine] | 175 | 
CCn1nnc(Nc2ccc3nc(NCc4ccccc4OC)ccc3c2)n1 [Example 87, N6-(2-Ethyl-2H-tetrazol-5-yl)-N2-(2-methoxy-benzyl)-quinoline-2,6-diamine] | 190 | 44
COc1ccccc1CNc1ccc2cc(Nc3cc(C)on3)ccc2n1 [Example 88, N2-(2-Methoxy-benzyl)-N6-(5-methyl-isoxazol-3-yl)-quinoline-2,6-diamine] | 132 | 26
COc1ccccc1CNc1ccc2cc(Nc3nc(C)cc(C)n3)ccc2n1 [Example 89, N6-(4,6-Dimethyl-pyrimidin-2-yl)-N2-(2-methoxy-benzyl)-quinoline-2,6-diamine] | 157.5 | 
COc1ccccc1CNc1ccc2cc(Nc3nccc(C)n3)ccc2n1 [Example 90, N2-(2-Methoxy-benzyl)-N6-(4-methyl-pyrimidin-2-yl)-quinoline-2,6-diamine] | 125 | 33
COc1ccccc1CNc1ccc2cc(Nc3ncccc3C)ccc2n1 [Example 91, N2-(2-Methoxy-benzyl)-N6-(3-methyl-pyridin-2-yl)-quinoline-2,6-diamine] | 163 | 
COc1ccccc1CNc1ccc2cc(Nc3ccccn3)ccc2n1 [Example 92, N2-(2-Methoxy-benzyl)-N6-pyridin-2-yl-quinoline-2,6-diamine] | 134 | 34
COc1ccccc1CNc1ccc2cc(Nc3cccc(C)n3)ccc2n1 [Example 93, N2-(2-Methoxy-benzyl)-N6-(6-methyl-pyridin-2-yl)-quinoline-2,6-diamine] | 134 | 
COc1ccccc1CNc1ccc2cc(Nc3nccc(C(F)(F)F)n3)ccc2n1 [Example 94, N2-(2-Methoxy-benzyl)-N6-(4-trifluoromethyl-pyrimidin-2-yl)-quinoline-2,6-diamine] | 114 | 30
